Source: ChEMBL document CHEMBL3885881, “DrugMatrix”

Species: Rattus norvegicus
Test: DrugMatrix - Regimen: Daily Repeat
Assay type: toxicity, organism-based, Sprague-Dawley
Design: regimen Daily Repeat, gender Male, age 6-8 weeks
Conditions: in vivo, po, route oral GAVAGE, vehicle .5 % CMC; for ABSOLUTE BASOPHIL / ABSOLUTE EOSINOPHIL / ABSOLUTE LYMPHOCYTE / ABSOLUTE MONOCYTE / ABSOLUTE SEGMENTED NEUTROPHIL / BASOPHIL / EOSINOPHIL / ERYTHROCYTE COUNT / HEMATOCRIT / HEMOGLOBIN / LEUKOCYTE COUNT / LYMPHOCYTE / MEAN CORPUSCULAR HEMOGLOBIN / MEAN CORPUSCULAR HEMOGLOBIN CONCENTRATION / MEAN CORPUSCULAR VOLUME / MONOCYTE / NEUTROPHIL / NUCLEATED RED BLOOD CELLS / PLATELET COUNT: tissue Blood; for ALANINE AMINOTRANSFERASE / ALBUMIN / ALKALINE PHOSPHATASE / ASPARTATE AMINOTRANSFERASE / BLOOD UREA NITROGEN / CARBON DIOXIDE / CHLORIDE / CHOLESTEROL / CREATINE PHOSPHOKINASE / CREATININE / GLUCOSE / LACTATE DEHYDROGENASE / LIPASE / PHOSPHORUS / POTASSIUM / SODIUM / TOTAL BILIRUBIN / TOTAL PROTEIN / URIC ACID: tissue Plasma
[1] = 0 mg/kg, 72 h, dose level Control, time 3 day
[2] = 0 mg/kg, 120 h, dose level Control, time 5 day
[3] = 3 mg/kg, 72 h, dose level Low, time 3 day

CC(=O)Nc1ccc2c(c1)Cc1ccccc1-2 [2-ACETYLAMINOFLUORENE]
ABSOLUTE BASOPHIL [1]: 0 CELLS/uL | ABSOLUTE EOSINOPHIL [1]: 171.33 CELLS/uL | ABSOLUTE LYMPHOCYTE [1]: 13776.5 CELLS/uL | ABSOLUTE MONOCYTE [1]: 180.83 CELLS/uL | ABSOLUTE SEGMENTED NEUTROPHIL [1]: 1121.33 CELLS/uL | BASOPHIL [1]: 0% | EOSINOPHIL [1]: 1% | ERYTHROCYTE COUNT [1]: 5.56 x10E6/uL | HEMATOCRIT [1]: 34.75% | HEMOGLOBIN [1]: 13.68 G/DL | LEUKOCYTE COUNT [1]: 15.25 x10E3/uL | LYMPHOCYTE [1]: 90.17% | MEAN CORPUSCULAR HEMOGLOBIN [1]: 24.6 pg | MEAN CORPUSCULAR HEMOGLOBIN CONCENTRATION [1]: 39.4 G/DL | MEAN CORPUSCULAR VOLUME [1]: 62.48 fL | MONOCYTE [1]: 1.17% | NEUTROPHIL [1]: 7.67% | NUCLEATED RED BLOOD CELLS [1]: 0 /100WBC | PLATELET COUNT [1]: 1342 x10E3/uL | ALANINE AMINOTRANSFERASE [1]: 49.67 u/L | ALBUMIN [1]: 4.15 G/DL | ALKALINE PHOSPHATASE [1]: 346.83 u/L | ASPARTATE AMINOTRANSFERASE [1]: 108.17 u/L | BLOOD UREA NITROGEN [1]: 17.33 mg/dL | CARBON DIOXIDE [1]: 25 mmol/L | CHLORIDE [1]: 100.83 MEQ/L | CHOLESTEROL [1]: 66.83 mg/dL | CREATINE PHOSPHOKINASE [1]: 788 u/L | CREATININE [1]: 0.18 mg/dL | GLUCOSE [1]: 151.67 mg/dL | LACTATE DEHYDROGENASE [1]: 982.5 u/L | LIPASE [1]: 10.33 u/L | PHOSPHORUS [1]: 11.23 mg/dL | POTASSIUM [1]: 6.37 MEQ/L | SODIUM [1]: 141.02 MEQ/L | TOTAL BILIRUBIN [1]: 0.18 mg/dL | TOTAL PROTEIN [1]: 5.9 G/DL | URIC ACID [1]: 1.8 mg/dL | ABSOLUTE BASOPHIL [2]: 0 CELLS/uL | ABSOLUTE EOSINOPHIL [2]: 69 CELLS/uL | ABSOLUTE LYMPHOCYTE [2]: 13632.83 CELLS/uL | ABSOLUTE MONOCYTE [2]: 139.83 CELLS/uL | ABSOLUTE SEGMENTED NEUTROPHIL [2]: 1225 CELLS/uL | BASOPHIL [2]: 0% | EOSINOPHIL [2]: 0.33% | ERYTHROCYTE COUNT [2]: 5.52 x10E6/uL | HEMATOCRIT [2]: 33.98% | HEMOGLOBIN [2]: 13.22 G/DL | LEUKOCYTE COUNT [2]: 15.07 x10E3/uL | LYMPHOCYTE [2]: 90.83% | MEAN CORPUSCULAR HEMOGLOBIN [2]: 23.95 pg | MEAN CORPUSCULAR HEMOGLOBIN CONCENTRATION [2]: 38.9 G/DL | MEAN CORPUSCULAR VOLUME [2]: 61.53 fL | MONOCYTE [2]: 0.83% | NEUTROPHIL [2]: 8% | NUCLEATED RED BLOOD CELLS [2]: 0 /100WBC | PLATELET COUNT [2]: 1196 x10E3/uL | ALANINE AMINOTRANSFERASE [2]: 49.17 u/L | ALBUMIN [2]: 4.2 G/DL | ALKALINE PHOSPHATASE [2]: 352.33 u/L | ASPARTATE AMINOTRANSFERASE [2]: 89.67 u/L | BLOOD UREA NITROGEN [2]: 18 mg/dL | CARBON DIOXIDE [2]: 27.67 mmol/L | CHLORIDE [2]: 101 MEQ/L | CHOLESTEROL [2]: 72.83 mg/dL | CREATINE PHOSPHOKINASE [2]: 417.5 u/L | CREATININE [2]: 0.18 mg/dL | GLUCOSE [2]: 150.5 mg/dL | LACTATE DEHYDROGENASE [2]: 517.33 u/L | LIPASE [2]: 9 u/L | PHOSPHORUS [2]: 11.87 mg/dL | POTASSIUM [2]: 6.57 MEQ/L | SODIUM [2]: 143.62 MEQ/L | TOTAL BILIRUBIN [2]: 0.2 mg/dL | TOTAL PROTEIN [2]: 6.08 G/DL | URIC ACID [2]: 1.45 mg/dL | ABSOLUTE BASOPHIL [3]: 0 CELLS/uL | ABSOLUTE EOSINOPHIL [3]: 75.33 CELLS/uL | ABSOLUTE LYMPHOCYTE [3]: 11859.67 CELLS/uL | ABSOLUTE MONOCYTE [3]: 186.67 CELLS/uL | ABSOLUTE SEGMENTED NEUTROPHIL [3]: 911.67 CELLS/uL | BASOPHIL [3]: 0% | EOSINOPHIL [3]: 0.67% | ERYTHROCYTE COUNT [3]: 5.43 x10E6/uL | HEMATOCRIT [3]: 34.07% | HEMOGLOBIN [3]: 13.33 G/DL | LEUKOCYTE COUNT [3]: 13.03 x10E3/uL | LYMPHOCYTE [3]: 91% | MEAN CORPUSCULAR HEMOGLOBIN [3]: 24.57 pg | MEAN CORPUSCULAR HEMOGLOBIN CONCENTRATION [3]: 39.2 G/DL | MEAN CORPUSCULAR VOLUME [3]: 62.73 fL | MONOCYTE [3]: 1.33% | NEUTROPHIL [3]: 7% | NUCLEATED RED BLOOD CELLS [3]: 0 /100WBC | PLATELET COUNT [3]: 1354.67 x10E3/uL | ALANINE AMINOTRANSFERASE [3]: 43.33 u/L | ALBUMIN [3]: 4.2 G/DL | ALKALINE PHOSPHATASE [3]: 360.33 u/L | ASPARTATE AMINOTRANSFERASE [3]: 88.67 u/L | BLOOD UREA NITROGEN [3]: 18.33 mg/dL | CARBON DIOXIDE [3]: 26.33 mmol/L | CHLORIDE [3]: 100.67 MEQ/L | CHOLESTEROL [3]: 65 mg/dL | CREATINE PHOSPHOKINASE [3]: 452 u/L | CREATININE [3]: 0.23 mg/dL | GLUCOSE [3]: 148.33 mg/dL | LACTATE DEHYDROGENASE [3]: 641.33 u/L | LIPASE [3]: 10.33 u/L | PHOSPHORUS [3]: 11.33 mg/dL | POTASSIUM [3]: 6.45 MEQ/L | SODIUM [3]: 141.2 MEQ/L | TOTAL BILIRUBIN [3]: 0.23 mg/dL | TOTAL PROTEIN [3]: 5.9 G/DL | URIC ACID [3]: 1.6 mg/dL
